Data set [1] deals with T1, 5HT2 receptor (Rattus norvegicus, UniProt P14842).
T1 construct: A7r5 rat vascular smooth muscle cells; endogenous in cells; host or cells: A7r5 rat vascular smooth muscle cells
Briefly: 5HT2 Functional Assay: Phosphoinositide (PI) turnover assay. Format: cell-based. The conditions noted are these: for Emax: A7R5, read-out: Efficacy (Emax, %). The procedure: 5HT2 Functional Assay: Phosphoinositide (PI) turnover assay
The relative agonist activity of serotonergic compounds at the 5HT2 receptor can be determined in vitro using the ability of the compounds to stimulate the production of [^3H]inositol phosphates in [^3H]myo-inositol-labeled A7r5 rat vascular smooth muscle cells by their ability to activate the enzyme phospholipase C. These cells are grown in culture plates, maintained in a humidified atmosphere of 5% CO2 and 95% air and fed semi-weekly with Dulbecco's modified Eagle medium (DMEM) containing 4.5 g/l glucose and supplemented with 2 mM glutamine, 10 μg/ml gentamicin, and 10% fetal bovine serum. For the purpose of conducting the phosphoinositide (PI) turnover experiments, the A7r5 cells are cultured in 24-well plates as previously [J. Pharmacol. Expt. Ther., 286, 411 (1998)]. Confluent cells are exposed for 24–30 hrs to 1.5 μCi [^3H]-myo-inositol (18.3 Ci/mmol) in 0.5 ml of serum-free medium. Cells are then rinsed once with DMEM/F-12 containing 10 mM LiCl prior to incubation with the test agent (or solvent as the control) in 1.0 ml of the same medium for 1 hr at 37° C., after which the medium is aspirated and 1 ml of cold 0.1 M formic acid added to stop the reaction. The chromatographic separation of [^3H]-inositol phosphates ([^3H]-IPs) on an AG- 1-X8 column is performed as previously described [J. Pharmacol. Expt. Ther. 286, 411 (1998)] with sequential washes with H2O and 50 mM ammonium formate, followed by elution of the total [^3H]-IPs fraction with 1.2 M ammonium formate containing 0.1 M formic acid. The eluate (4 ml) is collected, mixed with 15 ml scintillation fluid, and the total [3H]-IPs determined by scintillation counting on a beta-counter. Concentration-response data are analyzed by the sigmoidal fit function of the Origin Scientific Graphics software (Microcal Software, Northampton, Mass.) to determine agonist potency (EC50 value) and efficacy (Emax). Serotonin (5HT) is used as a positive control (standard) agonist compound and the efficacy of test compounds is compared to that of 5HT (set at 100%). The concentration of the compound needed to stimulate the production of […] by 50% of the maximum response is termed the EC50 value.

Among the data in patent US7005443B1, “5-Hydroxy indazole derivatives for treating glaucoma” (priority 2000, dated 2006) are EC50, Emax and melting point values, retold here.

Each structure is given as a SMILES string. Like-named read-outs stand apart in the source and are kept apart here.

One may read the EC50 as the concentration that produces a half-maximal response. As usually defined, the Emax is the maximal effect, on the per cent scale that the assay sets. What is called melting point is the temperature, or range, at which the solid turns liquid.

T1 sequence (P14842 whole entry): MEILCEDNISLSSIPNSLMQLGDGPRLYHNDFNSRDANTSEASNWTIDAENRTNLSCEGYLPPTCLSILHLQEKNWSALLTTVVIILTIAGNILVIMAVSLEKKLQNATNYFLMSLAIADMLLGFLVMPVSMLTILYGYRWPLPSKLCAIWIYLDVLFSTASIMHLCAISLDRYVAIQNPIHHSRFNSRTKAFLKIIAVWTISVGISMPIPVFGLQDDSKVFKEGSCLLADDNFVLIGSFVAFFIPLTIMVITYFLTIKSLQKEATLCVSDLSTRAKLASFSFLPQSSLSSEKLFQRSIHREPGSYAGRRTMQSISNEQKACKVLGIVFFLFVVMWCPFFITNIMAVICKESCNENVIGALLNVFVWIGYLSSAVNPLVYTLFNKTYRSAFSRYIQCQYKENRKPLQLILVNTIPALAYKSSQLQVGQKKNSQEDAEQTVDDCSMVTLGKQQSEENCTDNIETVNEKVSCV

`CC(N)Cc1nn(C)c2ccc(O)cc12.O=C(O)/C=C/C(=O)O` (stereo not drawn) [3-(2-Aminopropyl)-1-methyl-1H-indazol-5-ol fumarate] returned a melting point of 136 to 139 °C. In data set [1], the EC50 stood at 778 nM and the Emax came out at 98%.

The compound `CC(N)Cc1n[nH]c2ccc(O)cc12.Cl` (stereo not drawn) [3-(2-Aminopropyl)-1H-indazol-5-ol hydrochloride] registered a melting point of 227 to 230 °C. Besides, in data set [1], the Emax worked out at 97%. In addition, the EC50 in data set [1] ([3H]inositol phosphate production in A7r5 rat vascular smooth muscle cells, read-out: EC50) was 1210 nM.
